Where two headings read alike, the source gives them in different places.
Key:
[1] = system: RAW 264.7 macrophages; experiment: CCK-8 cell viability assay; type: cell-based, Murine; conditions: 40 μM, 24 h, RAW 264.7 macrophages, mean ± SD, n = 3
Experimental: (§1) Murine RAW 264.7 macrophages were purchased from the American Tissue Culture Collection (Manassas, USA). These cells were incubated in DMEM supplemented with 10% FBS, 100 U/mL penicillin and 100 U/mL streptomycin in humidified 5% carbon dioxide (CO2) at 37 °C [16, 17].
(§2) The effects of 19 constituents on the viability of RAW 264.7 macrophages were assessed by CCK-8 assay. Prior to treatment, RAW 264.7 macrophages (5 × 10^3 cells/well) were seeded into 96-well plates and incubated for 24 h. All cultured cells were treated with or without 19 compounds at a concentration of 40 μM at 37 °C for 24 h. After incubation, 10 μL of CCK-8 solution was added to each well and incubated at 37 °C. After 2 h, the absorbance of each well was measured at 450 nm in a microplate reader. Cell viability was calculated using the following formular:
(§3) Cell viability (%) = Asample/Acontrol × 100, where Asample and Acontrol are the absorbance of cells treated with the compound and untreated cells, respectively. Moreover, the latter is expressed as 100% cell viability.

[2] = system: NO production in LPS-stimulated RAW 264.7 macrophages; experiment: NO production by the Griess method; type: cell-based, Murine; conditions: LPS 1 μg/mL; for NO inhibition rate / inhibition at 40 µM: 40 μM; for IC50: RAW 264.7 macrophages, mean ± SD, n = 3; for inhibition at 40 µM: RAW264.7, read-out: NO inhibition rate
Experimental: as §1
The effects of 19 constituents on NO production in LPS-induced RAW 264.7 macrophages were determined using the Griess method. Prior to treatment, RAW 264.7 macrophages (5 × 10^3 cells/well) were seeded into 96-well plates and incubated for 24 h. […] After 1 h, cells were incubated with or without LPS at a concentration of 1 μg/mL at 37 °C for 24 h. After incubation, 50 μL of each supernatant solution was collected and mixed with equal volumes of Griess Reagent I and Griess Reagent II, respectively. The absorbance (A) was measured at 540 nm after 10 min of incubation at room temperature. The standard concentration of sodium nitrite was used to calculate the nitrite concentration. Moreover, the NO inhibition rate (%) = (ALPS − ALPS + sample)/(ALPS − Acontrol) × 100, where ALPS, ALPS + sample, and Acontrol are the absorbance of LPS model group, LPS + sample group, and DMEM group, respectively.

[3] = system: phosphorylated NF-κB p65 in LPS-stimulated RAW 264.7 macrophages; experiment: NF-κB activation by Western blotting; type: cell-based, Murine; conditions: 20 μM, LPS 1 μg/mL, 24 h, compared to the LPS group, p < 0.01
Experimental: RAW 264.7 macrophages were seeded and pretreated with respective concentrations of 20 μM of each compound (1, 4–6, 15 and 17) for 1 h, followed by the addition of LPS (1 μg/mL) for 24 h. Subsequently, the total protein was extracted by resuspending the cells in RIPA lysis buffer. In addition, protein concentrations were measured by a Bicinchoninic acid (BCA) assay kit. Proteins were separated using SDS-PAGE gels and then electroplated onto a PVDF membrane, which was blocked with 5% skim milk for 1 h at room temperature in Tris-buffered saline-Tween (TBST). Membranes were washed three times with TBST and then incubated overnight at 4 °C in diluted (1:1000) primary antibody solution (anti-NF-κB p65 or anti-phosphorylated-NF-κB p65). After washing three times with TBST, the membranes were incubated with a 1:5000 dilution of HRP-conjugated secondary antibody for 1 h at room temperature. The immunoreactive bands were determined by densitometry and quantified using a Bio-Rad auto-developer (Bio-Rad, California, USA). All results are expressed as relative ratios to the reference protein GAPDH [16, 17].

[4] = system: IL-1β in LPS-stimulated RAW 264.7 macrophages; experiment: IL-1β secretion by ELISA; type: cell-based, Murine; conditions: 20 μM, LPS 1 μg/mL, 24 h, compared to the LPS group, p < 0.01
Experimental: (§4) The logarithmic growth phase of RAW 264.7 macrophages was inoculated in 96-well plates at a density of 5 × 10^3 cells/well. After 24 h of incubation, these cells were pretreated with respective concentrations of 20 μM of each compound (1, 4–6, 15 and 17) for 1 h, followed by the addition of LPS (1 μg/mL) for 24 h. Finally, 50 μL of each supernatant solution was taken to measure the concentrations of TNF-α, PGE2, IL-1β and IL-6, using the corresponding commercially available murine ELISA kits in accordance with the manufacturer’s instructions.

[5] = system: IL-6 in LPS-stimulated RAW 264.7 macrophages; experiment: IL-6 secretion by ELISA; type: cell-based, Murine; conditions: 20 μM, LPS 1 μg/mL, 24 h, compared to the LPS group, p < 0.01
Experimental: as §4

[6] = system: PGE2 in LPS-stimulated RAW 264.7 macrophages; experiment: PGE2 secretion by ELISA; type: cell-based, Murine; conditions: 20 μM, LPS 1 μg/mL, 24 h, compared to the LPS group, p < 0.01
Experimental: as §4

[7] = system: TNF-α in LPS-stimulated RAW 264.7 macrophages; experiment: TNF-α secretion by ELISA; type: cell-based, Murine; conditions: 20 μM, LPS 1 μg/mL, 24 h, compared to the LPS group, p < 0.01
Experimental: as §4

[8] = CCK-8 cell viability assay; type: cell-based, Murine; conditions: mouse
Experimental: as §1, §2, §3

[9] = system: inflammatory cytokines in cells; set-up: method as in PMID 20221843, PMID 12105943, PMID 18448292, PMID 25821492; conditions: cited from earlier work
[10] = system: BV2 microglia; set-up: method as in PMID 22552813; conditions: 40, 60 and 80 μM; cited from earlier work
[11] = 40 μM, 24 h, RAW 264.7 macrophages, mean ± SD, n = 3, read-out: Cell viability (%)

Row | Compound | Cell viability (%) [1] [%] | NO inhibition rate ([2]; 24 h) | IC50 ([2]; 24 h) [µM] | viability at 24 h, 40 µM [8] [%] | IC50 ([2]; Mus musculus, RAW264.7, 24 h) [µM] | inhibition at 40 µM ([2]; Mus musculus, 24 h) [%] | also measured
1 | C[C@@H]1O[C@@H](OC[C@H]2O[C@@H](OCCc3ccccc3)[C@H](O)[C@@H](O)[C@@H]2O)[C@H](O)[C@H](O)[C@H]1O [Compound 19, phenethyl-O-rutinoside] | 92.30 ± 9.38 | ≤ 50% | > 40 |  |  |  | 
2 | OC[C@H]1O[C@@H](OCCc2ccccc2)[C@H](O)[C@@H](O)[C@@H]1O [Compound 17, phenethyl-O-β-D-glucopyranoside] | 92.21 ± 3.48 | greater than 50% | 19.9 ± 2.01 |  |  |  | Phosphorylation of NF-κB p65 levels [3]: significantly lower; Level of IL-1β [4]: significantly reduced; Level of IL-6 [5]: significantly reduced; Level of PGE2 [6]: significantly reduced; Level of TNF-α [7]: significantly reduced
3 | O=c1c(O)c(-c2ccc(O)cc2)oc2cc(O[C@@H]3O[C@H](CO)[C@@H](O)[C@H](O)[C@H]3O)cc(O)c12 [Compound 3, kaempferol-7-O-β-D-glucopyranoside] |  |  |  | 91.1 ± 5.28 | > 40 | ≤ 50 | 
4 | O=c1c(O[C@@H]2O[C@H](CO)[C@@H](O)[C@H](O)[C@H]2O[C@@H]2O[C@H](CO)[C@@H](O)[C@H](O)[C@H]2O)c(-c2ccc(O)cc2)oc2cc(O)cc(O)c12 [Compound 5, kaempferol-3-O-sophoroside] | 93.48 ± 5.33 |  | 13.1 ± 1.61 |  |  |  | 
5 | O=C1c2c(O)cc(O)cc2O[C@H](c2ccc(O)cc2)[C@H]1O [Compound 15, dihydrokaempferol] |  |  | 18.3 ± 1.71 | 91.3 ± 5.38 | ≤ 20 | > 50 | Anti-inflammatory effects by suppressing the secretion of inflammatory cytokines [9]: anti-inflammatory effects; Phosphorylation of NF-κB p65 levels [3]: significantly lower; Level of IL-1β [4]: significantly reduced; Level of IL-6 [5]: significantly reduced; Level of PGE2 [6]: significantly reduced; Level of TNF-α [7]: significantly reduced
6 | kaempferol-3-O-rutinoside [Compound 11] |  | greater than 50% | 31.2 ± 1.09 |  |  |  | Anti-inflammatory effects by suppressing the secretion of inflammatory cytokines [9]: anti-inflammatory effects
7 | plantanone D [Compound 13] | 91.84 ± 1.11 |  | 36.1 ± 3.77 |  |  |  | 
8 | COc1cc(O)c2c(=O)c(O[C@@H]3O[C@H](CO)[C@@H](O)[C@H](O)[C@H]3O[C@@H]3O[C@H](CO)[C@@H](O)[C@H](O)[C@H]3O)c(-c3ccc(O)cc3)oc2c1 [Compound 6, plantanone A] | 96.89 ± 1.04 |  | 12.6 ± 0.76 |  |  |  | 
9 | O=C1C[C@@H](c2ccc(O)cc2)Oc2cc(O)cc(O)c21 [Compound 14, naringenin] |  |  |  |  | 38.5 ± 2.78 | > 50 | viability at 24 h, 40 µM [8, 11]: 93 ± 6.19%; Anti-inflammatory effect via inhibition of NF-κB and MAPKs pathways [10]: possessed anti-inflammatory effect
10 | C[C@@H]1O[C@@H](OC[C@H]2O[C@@H](Oc3c(-c4ccc(O)cc4)oc4cc(O)cc(O)c4c3=O)[C@H](O[C@@H]3O[C@H](CO)[C@@H](O)[C@H](O)[C@H]3O)[C@@H](O)[C@@H]2O)[C@H](O)[C@H](O)[C@H]1O [Compound 10, kaempferol-3-O-β-D-glucopyranosyl-(1 → 2)-[α-L-rhamnopyranosyl-(1 → 6)]-β-D-glucopyranoside] |  |  |  | 93.8 ± 5.06 | > 40 | ≤ 50 | 
11 | O=c1c(O[C@@H]2O[C@H](CO)[C@@H](O)[C@H](O)[C@H]2O)c(-c2ccc(O)cc2)oc2cc(O[C@@H]3O[C@H](CO)[C@@H](O)[C@H](O)[C@H]3O)cc(O)c12 [Compound 4, kaempferol-3,7-di-O-β-D-glucopyranoside] |  |  |  | 93.4 ± 6.34 | 12.2 ± 1.18 | > 50 | 
12 | hostaflavanone A [Compound 16] | 92.56 ± 1.97 | ≤ 50% | > 40 |  |  |  | 
13 | plantanone B [Compound 12] | 91.93 ± 8.04 | ≤ 50% | > 40 |  |  |  | 
14 | OC[C@H]1O[C@@H](OC[C@H]2O[C@@H](OCCc3ccccc3)[C@H](O)[C@@H](O)[C@@H]2O)[C@H](O)[C@@H](O)[C@@H]1O [Compound 18, phenethanol-β-gentiobioside] | 92.51 ± 5.62 | ≤ 50% | > 40 |  |  |  | 
15 | O=c1c(O[C@@H]2O[C@H](CO)[C@@H](O)[C@H](O)[C@H]2O)c(-c2ccc(O)cc2)oc2cc(O)cc(O)c12 [Compound 2, astragalin] |  |  |  |  | > 40 | ≤ 50 | Anti-inflammatory effects by suppressing the secretion of inflammatory cytokines [9]: anti-inflammatory effects; viability at 24 h, 40 µM [8, 11]: 95 ± 1.86%
16 | C[C@@H]1O[C@@H](OC[C@H]2O[C@@H](Oc3c(-c4ccc(O)cc4)oc4cc(O[C@@H]5O[C@H](CO)[C@@H](O)[C@H](O)[C@H]5O)cc(O)c4c3=O)[C@H](O)[C@@H](O)[C@@H]2O)[C@H](O)[C@H](O)[C@H]1O [Compound 8, kaempferol-3-O-rutinoside-7-O-glucopyranoside] | 95.48 ± 3.54 |  | > 40 |  |  |  | 
17 | O=c1c(O[C@@H]2O[C@H](CO)[C@@H](O)[C@H](O)[C@H]2O[C@@H]2O[C@H](CO)[C@@H](O)[C@H](O)[C@H]2O)c(-c2ccc(O)cc2)oc2cc(O[C@@H]3O[C@H](CO)[C@@H](O)[C@H](O)[C@H]3O)cc(O)c12 [Compound 7, kaempferol-3-O-β-D-[β-D-glucopyranosyl-(1 → 2)-glucopyranoside]-7-O-β-D-glucopyranoside] | 94.03 ± 4.52 |  | 26.5 ± 1.53 |  |  |  | 
18 | O=c1c(O)c(-c2ccc(O)cc2)oc2cc(O)cc(O)c12 [Compound 1, kaempferol] |  |  | 18.4 ± 2.67 | 92.4 ± 3.96 | ≤ 20 | > 50 | Anti-inflammatory effects by suppressing the secretion of inflammatory cytokines [9]: anti-inflammatory effects; Phosphorylation of NF-κB p65 levels [3]: significantly lower; Level of IL-1β [4]: significantly reduced; Level of IL-6 [5]: significantly reduced; Level of PGE2 [6]: significantly reduced; Level of TNF-α [7]: significantly reduced
19 | C[C@@H]1O[C@@H](OC[C@H]2O[C@@H](O[C@H]3[C@H](Oc4c(-c5ccc(O)cc5)oc5cc(O)cc(O)c5c4=O)O[C@H](CO)[C@@H](O)[C@@H]3O)[C@H](O)[C@@H](O)[C@@H]2O)[C@H](O)[C@H](O)[C@H]1O [Compound 9, kaempferol-3-O-α-L-rhamnopyranosyl-(1 → 6)-β-D-glucopyranosyl-(1 → 2)-β-D-glucopyranoside] |  |  |  | 90.7 ± 3.71 | > 40 | ≤ 50 | 

From publication PMC8895762 (BMC Complementary Medicine and Therapies, 2022)
